From PubChem BioAssay (NCI)
“And” between values parts separate entries of the source, which are not always exact repeats. Identical values can stand only once.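 Test compounds were applied to cells in 96-well plates for 48 hours at 5 doses. Abbreviation: GI50, concentration required for 50% inhibition of growth. Definition used: TGI = concentration required for complete inhibition of growth.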

How the values were obtained:
Experiment in all cases: NCI-60 cell line screen, 48 h
[1] = test system: A498 renal
[2] = test system: OVCAR-3 ovarian
[3] = test system: MCF7 breast
[4] = test system: NCI-H522 lung
[5] = test system: KM12 colon
[6] = test system: SF-295 CNS
[7] = test system: SF-539 CNS
[8] = test system: NCI-H226 lung
[9] = test system: SF-268 CNS
[10] = test system: SK-MEL-28 melanoma

Compound	GI50 [1]	TGI [1]	GI50 [2]	TGI [2]	GI50 [3]	TGI [3]	GI50 [4]	TGI [4]	GI50 [5]	TGI [5]	GI50 [6]	TGI [6]	GI50 [7]	TGI [7]	GI50 [8]	TGI [8]	GI50 [9]	TGI [9]	GI50 [10]	TGI [10]
CC(C)n1nc(-c2ccc3oc(N)nc3c2)c2c(N)ncnc21	< 0.01 µM	< 0.01 µM	< 0.013 µM and 0.012 µM	0.411 µM and 0.759 µM	< 0.01 µM	2.87 µM and 4.12 µM	< 0.01 µM	15.3 µM and 1.76 µM	0.0222 µM and 0.0179 µM	5.01 µM and 2.24 µM	< 0.01 µM and 0.0102 µM	0.0472 µM and 0.0773 µM	0.0184 µM and 0.0175 µM	0.0902 µM and 0.113 µM	< 0.01 µM	0.371 µM and 0.231 µM	0.0151 µM and 0.0154 µM	2.88 µM and 1.85 µM	< 0.0108 µM	0.189 µM
CCOC(=O)c1oc2ccc([N+](=O)[O-])c3c2c1CCC3	–	> 100 µM	–	> 100 µM	–	> 100 µM	–	> 85.2 µM	–	> 100 µM	–	53.9 µM	–	39.7 µM	–	> 100 µM	–	72.2 µM	–	> 100 µM
CC(C)CC(Nc1c(O)ccc2ccccc12)C(=O)O (stereo not given)	–	67.3 µM	–	62.1 µM	–	> 100 µM	–	> 100 µM	–	> 100 µM	–	66.6 µM	–	47.6 µM	–	62.1 µM	–	83.3 µM	–	> 100 µM
C[C@]1(Cn2ccnn2)C(C(=O)O)N2C(=O)CC2S1(=O)=O (stereo not given in full)	> 100 µM	> 100 µM	> 100 µM	> 100 µM	> 100 µM	> 100 µM	> 100 µM	> 100 µM	> 100 µM	> 100 µM	> 100 µM	> 100 µM	> 100 µM	> 100 µM	> 100 µM	> 100 µM	> 100 µM	> 100 µM	> 100 µM	> 100 µM
C/C(=N\N=C(\[Se])N(C)C)c1ccccn1	–	9.94 µM	–	11.8 µM	–	8.15 µM	–	0.975 µM	–	17.9 µM	–	12 µM	–	9.03 µM	–	5.27 µM	–	25.6 µM	–	18.9 µM
Cc1cc2nc3cc(C)c(N)cc3[n+](-c3ccccc3)c2cc1N	54.8 µM	> 100 µM	2.98 µM	> 95.7 µM	2.48 µM	> 100 µM	3.73 µM	> 41 µM	2.07 µM	17.6 µM	2.94 µM	> 73.8 µM	4.39 µM	> 100 µM	6.23 µM	> 69.4 µM	2.23 µM	> 100 µM	15.2 µM	79.3 µM
COc1cc(N2CCN(C(C)C)CC2)ccc1Nc1nc(Nc2cccc(F)c2C(=O)O)c2cc[nH]c2n1	> 25 µM	> 25 µM	> 25 µM	> 25 µM	> 25 µM	> 25 µM	> 25 µM	> 25 µM	> 25 µM	> 25 µM	> 25 µM	> 25 µM	> 25 µM	> 25 µM	> 25 µM	> 25 µM	> 25 µM	> 25 µM	> 25 µM	> 25 µM
CN1CCN(Cc2ccc(NC(=O)c3cncc(C#Cc4cncc5nccnc45)c3)cc2C(F)(F)F)CC1	0.772 µM	3.22 µM	4.95 µM	15.1 µM	2.35 µM	10.1 µM	3.17 µM	10.8 µM	0.136 µM	6.88 µM	7.05 µM	14.4 µM	0.956 µM	6 µM	0.628 µM	> 50 µM	5.22 µM	16.6 µM	1.66 µM	5.97 µM
CN(C)CC(C(=O)Cc1ccccc1)c1ccccc1 (stereo not given)	12.4 µM	25 µM	1.9 µM	3.48 µM	0.369 µM	1.67 µM	1.74 µM	3.47 µM	1.07 µM	2.49 µM	11.3 µM	27.8 µM	1.87 µM	3.99 µM	13.8 µM	38.3 µM	8.25 µM	22.6 µM	3.22 µM	10.2 µM
COc1cc2ncnc(Nc3ccc4c(cnn4Cc4ccccc4)c3)c2cc1OC	> 18.6 µM	> 25 µM	15.1 µM	> 25 µM	> 25 µM	> 25 µM	0.724 µM	> 25 µM	18.7 µM	> 25 µM	> 20.2 µM	> 25 µM	> 15.8 µM	> 25 µM	> 25 µM	> 25 µM	> 25 µM	> 25 µM	> 25 µM	> 25 µM
COc1ccc(/C=C2\CN(Cc3cn(CCNc4ccnc5cc(Cl)ccc45)nn3)C/C(=C\c3ccc(OC)c(OC)c3)C2=O)cc1OC	2.53 µM	13.2 µM	2.8 µM	8.57 µM	3.3 µM	16 µM	2.24 µM	6.38 µM	1.87 µM	3.6 µM	2.41 µM	6.1 µM	2.58 µM	8.14 µM	4.04 µM	21 µM	3.36 µM	21.5 µM	2.29 µM	5.97 µM
N=C(N)c1ccc(NCCOCCNc2ccc(C(=N)N)cc2)cc1	17 µM	94.6 µM	69.1 µM	> 100 µM	16 µM	> 100 µM	29.8 µM	> 100 µM	43.8 µM	> 100 µM	43.3 µM	> 100 µM	36.8 µM	> 100 µM	13.3 µM	> 100 µM	45.3 µM	> 100 µM	73.3 µM	> 100 µM
